For series [1], the target named is Mitogen-activated protein kinase 8 (Homo sapiens, UniProt P45983). The series can be described thus: Binding affinity to JNK1 (2 to 364 residues) (unknown origin) expressed in Escherichia coli BL21(DE3) assessed as dissociation constant by isothermal titration calorimetry assay. (In general: Isothermal titration calorimetry measures the heat released or taken up as one component is titrated into another.)

The target of series [2] is Mitogen-activated protein kinase 10 (Homo sapiens, UniProt P53779). The series can be described thus: Binding affinity to JNK3 (39 to 402 residues) (unknown origin) expressed in Escherichia coli BL21(DE3) assessed as dissociation constant by isothermal titration calorimetry assay.
Mitogen-activated protein kinase 10, sequence (P53779 whole entry, the tested form may be a part): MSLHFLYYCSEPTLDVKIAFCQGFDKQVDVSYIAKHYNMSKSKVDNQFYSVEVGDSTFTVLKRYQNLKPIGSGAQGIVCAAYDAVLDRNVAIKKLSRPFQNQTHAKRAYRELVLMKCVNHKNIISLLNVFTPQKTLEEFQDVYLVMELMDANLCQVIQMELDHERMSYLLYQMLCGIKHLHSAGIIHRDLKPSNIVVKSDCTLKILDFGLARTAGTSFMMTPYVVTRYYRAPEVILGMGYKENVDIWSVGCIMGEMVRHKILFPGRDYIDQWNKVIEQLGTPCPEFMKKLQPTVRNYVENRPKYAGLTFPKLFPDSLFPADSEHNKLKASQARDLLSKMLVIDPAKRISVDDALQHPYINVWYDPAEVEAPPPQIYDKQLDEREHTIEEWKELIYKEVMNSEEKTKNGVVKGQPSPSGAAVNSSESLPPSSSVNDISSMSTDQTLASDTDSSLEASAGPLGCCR
Series [3] can be described thus: Stability of the compound in PBS buffer assessed as half life at 250 uM at pH 7.4 in presence of GSH by HPLC analysis. In kind it is physicochemical. As to conditions: pH 7.4, 250 µM; call rule not given here.

A value given as a limit tells only on which side of the number the result lay.

Drawing on ChEMBL document CHEMBL5360623, “Principles and Applications of CF2X Moieties as Unconventional Halogen Bond Donors in Medicinal Chemistry, Chemical Biology, and Drug Discovery” (J Med Chem, 2023), this text covers Kd and t1/2 for 30 molecules.

Mitogen-activated protein kinase 8, sequence (P45983 whole entry, the tested form may be a part): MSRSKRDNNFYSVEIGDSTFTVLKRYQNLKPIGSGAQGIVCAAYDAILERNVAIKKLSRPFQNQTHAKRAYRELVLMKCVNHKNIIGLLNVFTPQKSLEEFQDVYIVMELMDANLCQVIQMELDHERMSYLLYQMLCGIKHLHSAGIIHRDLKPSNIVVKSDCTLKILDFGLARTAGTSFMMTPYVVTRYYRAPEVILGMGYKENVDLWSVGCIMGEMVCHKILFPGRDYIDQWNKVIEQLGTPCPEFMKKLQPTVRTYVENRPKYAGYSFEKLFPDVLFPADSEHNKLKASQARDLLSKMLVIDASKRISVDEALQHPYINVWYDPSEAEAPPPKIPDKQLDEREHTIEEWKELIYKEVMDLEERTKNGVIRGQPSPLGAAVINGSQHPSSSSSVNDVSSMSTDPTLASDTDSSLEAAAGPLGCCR

By Kd is commonly meant the concentration at which binding is half-saturated. In the case of `O=C(NCCc1c[nH]c2ccccc12)C(F)(F)Cl`, the Kd result in series [1] and in series [2] was “Not Active” each time. Take `NC(=O)Nc1ccc(OC(F)(F)I)cc1`: the t1/2 in series [3] was determined as 0.3 days. In the case of `O=C(c1cnc2ccccn12)C(F)(F)Cl`, the Kd in series [1] (read-out: Kd) and in series [2] (read-out: Kd) was over 1000 µM each time. For `NC(=O)Nc1ccc(OC(F)F)cc1`, the t1/2 in series [3] is over 50 days. Regarding `O=C(Nc1ccc(Cn2cncn2)cc1)C(F)(F)Br`, the Kd result in series [1] and in series [2] was “Not Active” in each case. For the molecule `CCOC(=O)c1c(NC(=O)C(F)(F)Br)sc2c1CCCC2`, the Kd result in series [1] and in series [2] was “Not Active” throughout.

Turning to `O=C(Nc1nncs1)C(F)(F)Br`, the Kd in series [1] (read-out: Kd) amounted to 193 µM; in series [2] (read-out: Kd), 248 µM. As for `O=C(Nc1nnc(-c2ccc([N+](=O)[O-])cc2)o1)C(F)(F)Br`, the dissociation constant (Kd) result in series [1] and in series [2] was “Not Active” in each case.

As to `NC(=O)Nc1ccc(NC(=O)C(F)(F)Br)cc1`, the Kd result in series [1] and in series [2] was “Not Active” each time. For the molecule `NC(=O)Nc1ccc(OC(F)(F)Br)cc1`, in series [3], the t1/2 turned out to be 0.221 days. Turning to `O=C(Nc1ccc2c(c1)OCO2)C(F)(F)Br`, the Kd in series [1] (read-out: Kd) and in series [2] (read-out: Kd) was over 1000 µM throughout. Also, the t1/2 in series [3] was 11.7 days. On to `O=C(Nc1ccc2c(c1)OCO2)C(F)(F)F`, for which the t1/2 in series [3] was 5.42 days. As for `O=C(Nc1ccc2c(c1)OCO2)C(F)F`, the t1/2 in series [3] was over 50 days. Consider `O=C(Nc1ccc(F)cc1)C(F)(F)Br`, for which the Kd entry in series [1] and in series [2] was “Not Active” each time. Regarding `O=C(Nc1ccc(O)c(O)c1)C(F)(F)Cl`, the Kd result in series [1] and in series [2] was “Not Active” throughout.

Take `COC(=O)c1scc(C)c1NC(=O)C(F)(F)Cl`: the Kd entry in series [1] and in series [2] was “Not Active” in each case. As to `Nc1nnc(-c2ccncc2)s1`, the Kd in series [1] (read-out: Kd) was 162 µM; in series [2], “Not Active”. Consider `O=C(Nc1ccc2c(c1)OCO2)C(F)(F)I`, for which the Kd entry in series [1] and in series [2] was “Not Active” throughout. Further, the t1/2 in series [3] was 12.1 days. Consider `O=C(c1ccco1)N1CCN(C(=O)C(F)(F)Br)CC1`, for which the Kd result in series [1] and in series [2] was “Not Active” each time. As for `O=C(Nc1nnc(-c2ccncc2)s1)C(F)(F)Br`, the Kd in series [1] (read-out: Kd) is 15 µM; in series [2] (read-out: Kd) it was 17 µM.

In the case of `NC(=O)Nc1ccc(OC(F)(F)Cl)cc1`, in series [3], the t1/2 is over 50 days. Regarding `O=C(Nc1ccc2c(c1)OCO2)C(F)(F)Cl`, the values for the Kd result in series [1] and in series [2] (read-out: Kd) were “Not Active” and over 1000 µM, respectively. Moreover, the t1/2 in series [3] is 10.8 days. On to `O=C(Nc1cccc2nsnc12)C(F)(F)Br`, for which the Kd result in series [1] and in series [2] was “Not Active” in each case. As for `CCOC(=O)c1cnn(C)c1NC(=O)C(F)(F)Cl`, the Kd result in series [1] and in series [2] was “Not Active” throughout.

For the molecule `O=C(Nc1nncs1)C(F)(F)Cl`, the Kd was 186 µM in series [1] (read-out: Kd) and 243 µM in series [2] (read-out: Kd). On to `O=C(Nc1nncs1)C(F)(F)I`, for which the Kd stood at 104 µM in series [1] (read-out: Kd) and 186 µM in series [2] (read-out: Kd).

Regarding `NC(=O)Nc1ccc(OC(F)(F)F)cc1`, the t1/2 in series [3] was over 50 days.

Turning to `O=C(Nc1nccs1)C(F)(F)Br`, the Kd in series [1] (read-out: Kd) and in series [2] (read-out: Kd) was over 1000 µM in each case. On to `O=C(Nc1nnc(-c2ccncc2)s1)C(F)(F)I`, for which the Kd in series [1] (read-out: Kd) is 10 µM; in series [2] (read-out: Kd), 13 µM. Consider `O=C(Nc1nnc(-c2ccncc2)s1)C(F)(F)Cl`, for which the Kd in series [1] (read-out: Kd) was found to be 20 µM; in series [2] (read-out: Kd), 23 µM.
